# Biological target: T1, human NK2 receptor (Homo sapiens, UniProt P21452)
# T1 construct: purchased Perkin Elmer biosignal Inc. 6110510
# T1 sequence (P21452 1-398): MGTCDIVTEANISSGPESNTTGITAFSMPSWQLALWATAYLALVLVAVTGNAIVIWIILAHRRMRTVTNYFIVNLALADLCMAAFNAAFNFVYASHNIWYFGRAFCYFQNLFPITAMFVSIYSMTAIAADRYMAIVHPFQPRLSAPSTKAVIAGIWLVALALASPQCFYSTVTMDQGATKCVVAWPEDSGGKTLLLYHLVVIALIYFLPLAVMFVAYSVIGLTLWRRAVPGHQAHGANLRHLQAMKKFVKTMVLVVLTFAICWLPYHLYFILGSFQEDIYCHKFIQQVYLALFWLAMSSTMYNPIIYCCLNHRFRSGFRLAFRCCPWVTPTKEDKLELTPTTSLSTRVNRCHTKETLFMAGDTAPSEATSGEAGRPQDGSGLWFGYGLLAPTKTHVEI
# Assay: [3H]SR48968 competition binding assay
# Conditions: [3H]SR48968 displacement, membranes of CHO cells stably expressing recombinant human NK2 receptor; Ki from IC50 by Cheng-Prussoff
# Summary of the method: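 Membranes from CHO cells stably expressing recombinant human NK2 were incubated 75 min at RT with [3H]SR48968 at its KD and 10 compound concentrations (0.0003–10 μM) in Tris-HCl pH 7.4, MnCl2, chymostatin, BSA. Filter-bound radioactivity was counted; Hill-fitted IC50 converted to Ki via Cheng-Prusoff.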
row,Structure (SMILES),Ki
1,"CN(C(=O)c1ccc(OCC2CC2)cc1)[C@@H]1CN(C(=O)c2ccc(C#N)cc2)C[C@H]1c1ccc(Cl)c(Cl)c1 (racemic) [Example 75, rac-N-[(3S,4R)-1-(4-Cyano-benzoyl)-4-(3,4-dichloro-phenyl)-pyrrolidin-3-yl]-4-cyclopropylmethoxy-N-methyl-benzamide]",23 nM
2,"CN(C(=O)Cc1ccc(F)c(F)c1)[C@H]1CN(C(=O)C2CCN(CC3CC3)CC2)C[C@@H]1c1ccc(Cl)c(Cl)c1 (racemic) [Example 150, N-[(3RS,4SR)-1-(1-Cyclopropylmethyl-piperidine-4-carbonyl)-4-(3,4-dichloro-phenyl)-pyrrolidin-3-yl]-2-(3,4-difluoro-phenyl)-N-methyl-acetamide]",19.8 nM
3,"CN(C(=O)c1cccc(C#N)c1)[C@@H]1CN(C(=O)N2CCN(S(C)(=O)=O)CC2)C[C@H]1c1ccc(Cl)c(Cl)c1 (racemic) [Example 15, rac-3-Cyano-N-[(3S,4R)-4-(3,4-dichloro-phenyl)-1-(4-methanesulfonyl-piperazine-1-carbonyl)-pyrrolidin-3-yl]-N-methyl-benzamide]",65.2 nM
4,"COc1ccc(C(=O)N(C)[C@H]2CN(C(=O)C3CCN(C(=O)C4(C)CC4)CC3)C[C@@H]2c2ccc(Cl)cc2C)cc1C(F)(F)F [Example 123, N-{(3R,4S)-4-(4-Chloro-2-methyl-phenyl)-1-[1-(1-methyl-cyclopropanecarbonyl)-piperidine-4-carbonyl]-pyrrolidin-3-yl}-4-methoxy-N-methyl-3-trifluoromethyl-benzamide]",38 nM
5,"COc1ccc(C(=O)N(C)[C@@H]2CN(C(=O)C3CCN(C(=O)C4(C)CC4)CC3)C[C@H]2c2ccc(Cl)c(Cl)c2)cc1C(F)(F)F [Example 107, N-{(3S,4R)-4-(3,4-Dichloro-phenyl)-1-[1-(1-methyl-cyclopropanecarbonyl)-piperidine-4-carbonyl]-pyrrolidin-3-yl}-4-methoxy-N-methyl-3-trifluoromethyl-benzamide]",0.6 nM
6,"CN(C(=O)CC1CCOCC1)[C@H]1CN(C(=O)C2CCN(C(=O)C3(C)CC3)CC2)C[C@@H]1c1ccc(Cl)c(Cl)c1 (racemic) [Example 124, N-{(3RS,4SR)-4-(3,4-Dichloro-phenyl)-1-[1-(1-methyl-cyclopropanecarbonyl)-piperidine-4-carbonyl]-pyrrolidin-3-yl}-N-methyl-2-(tetrahydro-pyran-4-yl)-acetamide]",13 nM
7,"CN(C(=O)Cc1ccc(F)cc1)[C@H]1CN(C(=O)c2ccc(N3CCOCC3)nc2)C[C@@H]1c1ccc(Cl)c(Cl)c1 (racemic) [Example 135, N-[(3RS,4SR)-4-(3,4-Dichloro-phenyl)-1-(6-morpholin-4-yl-pyridine-3-carbonyl)-pyrrolidin-3-yl]-2-(4-fluoro-phenyl)-N-methyl-acetamide]",85.4 nM
8,"COc1ccc(C(=O)N(C)[C@@H]2CN(C(=O)C3CCN(C(=O)C4(C)CC4)CC3)C[C@H]2c2ccc(Cl)cc2)cc1C(F)(F)F [Example 94, N-{(3S,4R)-4-(4-Chloro-phenyl)-1-[1-(1-methyl-cyclopropanecarbonyl)-piperidine-4-carbonyl]-pyrrolidin-3-yl}-4-methoxy-N-methyl-3-trifluoromethyl-benzamide]",0.6 nM
9,"COc1ccc(C(=O)N(C)[C@@H]2CN(C(=O)c3ccc(F)cc3)C[C@H]2c2ccc(Cl)c(Cl)c2)cc1C(F)(F)F (racemic) [Example 46, rac-N-[(3S,4R)-4-(3,4-Dichloro-phenyl)-1-(4-fluoro-benzoyl)-pyrrolidin-3-yl]-4-methoxy-N-methyl-3-trifluoromethyl-benzamide]",3.26 nM
10,"CC(C#N)c1cccc(C(=O)N(C)[C@@H]2CN(C(=O)N3CCN(S(C)(=O)=O)CC3)C[C@H]2c2ccc(Cl)c(Cl)c2)c1 (mixture of isomers) [Example 35, rac-3-(Cyano-methyl-methyl)-N-[(3S,4R)-4-(3,4-dichloro-phenyl)-1-(4-methanesulfonyl-piperazine-1-carbonyl)-pyrrolidin-3-yl]-N-methyl-benzamide]",28.5 nM
11,"CN(C(=O)c1cccc(C(F)(F)F)c1)[C@@H]1CN(C(=O)N2CCN(S(C)(=O)=O)CC2)C[C@H]1c1ccc(Cl)cc1 (racemic) [Example 7, rac-N-[(3S,4R)-4-(4-Chloro-phenyl)-1-(4-methanesulfonyl-piperazine-1-carbonyl)-pyrrolidin-3-yl]-N-methyl-3-trifluoromethyl-benzamide]",33.9 nM
12,"CN(C(=O)c1ccc(C#N)nc1)[C@@H]1CN(C(=O)c2ccc(C#N)cc2)C[C@H]1c1ccc(Cl)c(Cl)c1 (racemic) [Example 80, rac-6-Cyano-N-[(3S,4R)-1-(4-cyano-benzoyl)-4-(3,4-dichloro-phenyl)-pyrrolidin-3-yl]-N-methyl-nicotinamide]",40 nM

# More lines, in order of falling Ki, values ahead:
row,Ki,Structure (SMILES)
1,97.1 nM,"Cc1cncc(C(=O)N(C)[C@@H]2CN(C(=O)c3ccc(C#N)cc3)C[C@H]2c2ccc(Cl)c(Cl)c2)c1 (racemic) [Example 83, rac-N-[(3S,4R)-1-(4-Cyano-benzoyl)-4-(3,4-dichloro-phenyl)-pyrrolidin-3-yl]-5,N-dimethyl-nicotinamide]"
2,51.9 nM,"CN(C(=O)Cc1ccc(F)cc1)[C@H]1CN(C(=O)c2ccc(N3CCOCC3)cc2)C[C@@H]1c1ccc(Cl)c(Cl)c1 (racemic) [Example 134, N-[(3RS,4SR)-4-(3,4-Dichloro-phenyl)-1-(4-morpholin-4-yl-benzoyl)-pyrrolidin-3-yl]-2-(4-fluoro-phenyl)-N-methyl-acetamide]"
3,23 nM,"CN(C(=O)CC(C)(C)C)[C@H]1CN(C(=O)C2CCN(C(=O)C3(C)CC3)CC2)C[C@@H]1c1ccc(Cl)c(Cl)c1 (racemic) [Example 115, N-{(3RS,4SR)-4-(3,4-Dichloro-phenyl)-1-[1-(1-methyl-cyclopropanecarbonyl)-piperidine-4-carbonyl]-pyrrolidin-3-yl}-3,3,N-trimethyl-butyramide]"
4,9.52 nM,"COc1ccc(C(=O)N(C)[C@@H]2CN(C(=O)c3cc(C)cc(C)c3)C[C@H]2c2ccc(Cl)c(Cl)c2)cc1C(F)(F)F (racemic) [Example 56, rac-N-[(3S,4R)-4-(3,4-Dichloro-phenyl)-1-(3,5-dimethyl-benzoyl)-pyrrolidin-3-yl]-4-methoxy-N-methyl-3-trifluoromethyl-benzamide]"
5,8.52 nM,"COc1ccc(C(=O)N(C)[C@@H]2CN(C(=O)c3cc(C)n(C)n3)C[C@H]2c2ccc(Cl)c(Cl)c2)cc1C(F)(F)F (racemic) [Example 58, rac-N-[(3S,4R)-4-(3,4-Dichloro-phenyl)-1-(1,5-dimethyl-1H-pyrazole-3-carbonyl)-pyrrolidin-3-yl]-4-methoxy-N-methyl-3-trifluoromethyl-benzamide]"
6,3.81 nM,"COc1ccc(C(=O)N(C)[C@@H]2CN(C(=O)c3cccc(S(C)(=O)=O)c3)C[C@H]2c2ccc(Cl)c(Cl)c2)cc1C(F)(F)F (racemic) [Example 54, rac-N-[(3S,4R)-4-(3,4-Dichloro-phenyl)-1-(3-methanesulfonyl-benzoyl)-pyrrolidin-3-yl]-4-methoxy-N-methyl-3-trifluoromethyl-benzamide]"
7,0.7 nM,"CN(C(=O)c1cc(C(F)(F)F)ccn1)[C@H]1CN(C(=O)C2CCN(C(=O)C3(C)CC3)CC2)C[C@@H]1c1ccc(Cl)c(Cl)c1 (racemic) [Example 166, 4-Trifluoromethyl-pyridine-2-carboxylic acid {(3RS,4SR)-4-(3,4-dichloro-phenyl)-1-[1-(1-methyl-cyclopropanecarbonyl)-piperidine-4-carbonyl]-pyrrolidin-3-yl}-methyl-amide]"
